Measured values from ChEMBL document CHEMBL4665919, “Novel Tricyclic Pyroglutamide Derivatives as Potent RORγt Inverse Agonists Identified using a Virtual Screening Approach” (ACS Med Chem Lett, 2020).

Columns and labels:
[1] = Half life in human liver microsomes; type: ADME, Microsome
[2] = Half life in mouse liver microsomes; type: ADME, Microsome
[3] = Half life in rat liver microsomes; type: ADME, Microsome
[4] = biological target: T1, Nuclear receptor ROR-gamma (Homo sapiens, UniProt P51449); assay: Inverse agonist activity at Gal4-fused RORgammat LBD (unknown origin) by reporter gene assay
T1 sequence (P51449 whole entry): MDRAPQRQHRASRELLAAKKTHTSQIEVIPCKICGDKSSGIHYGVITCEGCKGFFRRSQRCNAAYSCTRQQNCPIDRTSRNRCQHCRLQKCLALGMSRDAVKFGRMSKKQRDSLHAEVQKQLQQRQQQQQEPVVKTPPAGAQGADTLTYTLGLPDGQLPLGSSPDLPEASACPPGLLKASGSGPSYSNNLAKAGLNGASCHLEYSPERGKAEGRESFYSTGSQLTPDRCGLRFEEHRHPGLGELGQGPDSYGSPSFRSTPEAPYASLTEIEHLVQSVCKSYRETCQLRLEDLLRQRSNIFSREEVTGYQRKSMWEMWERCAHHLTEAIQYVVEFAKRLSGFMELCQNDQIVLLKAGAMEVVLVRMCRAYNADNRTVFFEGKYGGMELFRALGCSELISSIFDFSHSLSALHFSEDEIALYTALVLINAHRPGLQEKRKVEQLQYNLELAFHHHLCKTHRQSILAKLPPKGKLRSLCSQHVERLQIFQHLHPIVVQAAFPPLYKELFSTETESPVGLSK

[5] = biological target: T1, Nuclear receptor ROR-gamma; assay: Inverse agonist activity at RORgammat in human whole blood assessed as IL-17 production by ELISA; type: tissue-based
[6] = (§1) Cmax in IL-23 induced acanthosis C57BL/6 mouse model of psoriasis measured as (3R,5S)-3-Fluoro-5-((3aR,9bR)-9b-((4-fluorophenyl)sulfonyl)-7-(perfluoropropan-2-yl)-2,3,3a,4,5,9b-hexahydro-1H-benzo[e]indole-3-carbonyl)-1-(2-hydroxy-2-methylpropyl)pyrrolidin-2-one at 5 mg/kg, po qd administered for 9 days 2 hrs before IL-23 injection; type: ADME, organism-based; parameters: route oral, dose 5 mg/kg, time 9 day; details: in vivo, 216 h
[7] = test system: Mus musculus; assay: as §1, with “Suppression of ear thickness in” for “Cmax in”, “at 45” for “at 5”, “injection measured every other day relative to IL-23 antibody treatment” for “injection”; type: functional; details: C57BL/6, po, 216 h, time 9 day
[8] = test system: Mus musculus; assay: as §1, with “Suppression of ear thickness in” for “Cmax in”, “at 15” for “at 5”, “qd” for “qd administered”, “injection measured every other day relative to IL-23 antibody treatment” for “injection”; type: functional; details: C57BL/6, po, 216 h, time 9 day
[9] = Toxicity in IL-23 induced acanthosis C57BL/6 mouse model of psoriasis assessed as change in body weight measured as (3R,5S)-3-Fluoro-5-((3aR,9bR)-9b-((4-fluorophenyl)sulfonyl)-7-(perfluoropropan-2-yl)-2,3,3a,4,5,9b-hexahydro-1H-benzo[e]indole-3-carbonyl)-1-(2-hydroxy-2-methylpropyl)pyrrolidin-2-one at 5 to 45 mg/kg, po qd administered for 9 days 2 hrs before IL-23 injection measured every other day; type: organism-based; details: in vivo, dose 5-45 mg/kg
[10] = as §1, with “Drug concentration” for “Cmax”, “acanthosis in” for “acanthosis”, “mouse” for “mouse model of psoriasis”, “for” for “for 9 days”, “injection measured on day 1” for “injection”; type: ADME, organism-based; details: in vivo, 24 h, time 1 day, read-out: Ct
[11] = as §1, with “AUC” for “Cmax”, “for” for “for 9 days”, “injection measured on day 1” for “injection”; type: ADME, organism-based; parameters: time 1 day, dose 5 mg/kg; details: in vivo, 24 h
[12] = as §1, with “AUC in” for “Cmax in”, “at 15” for “at 5”, “for” for “for 9 days”, “injection measured on day 1” for “injection”; type: ADME, organism-based; parameters: time 1 day, dose 15 mg/kg; details: in vivo, 24 h
[13] = as §1, with “AUC in” for “Cmax in”, “at 45” for “at 5”, “for” for “for 9 days”, “injection measured on day 1” for “injection”; type: ADME, organism-based; parameters: time 1 day, dose 45 mg/kg; details: in vivo, 24 h
[14] = as §1, with “AUC” for “Cmax”; type: ADME, organism-based; parameters: dose 5 mg/kg, time 9 day; details: in vivo, 216 h
[15] = as §1, with “AUC in” for “Cmax in”, “at 15” for “at 5”; type: ADME, organism-based; parameters: time 9 day, dose 15 mg/kg; details: in vivo, 216 h
[16] = as §1, with “AUC in” for “Cmax in”, “at 45” for “at 5”; type: ADME, organism-based; parameters: time 9 day, dose 45 mg/kg; details: in vivo, 216 h
[17] = as §1, with “at 15” for “at 5”; type: ADME, organism-based; parameters: route oral, dose 15 mg/kg, time 9 day; details: in vivo, 216 h
[18] = as §1, with “at 45” for “at 5”; type: ADME, organism-based; parameters: route oral, dose 45 mg/kg, time 9 day; details: in vivo, 216 h
[19] = (§2) Drug concentration in IL-23 induced acanthosis in C57BL/6 mouse measured as (3R,5S)-3-Fluoro-5-((3aR,9bR)-9b-((4-fluorophenyl)sulfonyl)-7-(perfluoropropan-2-yl)-2,3,3a,4,5,9b-hexahydro-1H-benzo[e]indole-3-carbonyl)-1-(2-hydroxy-2-methylpropyl)pyrrolidin-2-one at 15 mg/kg, po qd administered for 2 hrs before IL-23 injection measured on day 1; type: ADME, organism-based; details: in vivo, 24 h, time 1 day, read-out: Ct
[20] = as §2, with “at 45” for “at 15”, “day 11” for “day 1”; type: ADME, organism-based; details: in vivo, 24 h, time 1 day, read-out: Ct
[21] = as §2, with “administered for 9 days 2 hrs” for “administered for 2 hrs”, “IL-23 injection” for “IL-23 injection measured on day 1”; type: ADME, organism-based; details: in vivo, 216 h, time 9 day, read-out: Ct
[22] = as §1, with “Drug concentration” for “Cmax”, “acanthosis in” for “acanthosis”, “mouse” for “mouse model of psoriasis”; type: ADME, organism-based; details: in vivo, 216 h, time 9 day, read-out: Ct
[23] = Drug concentration in IL-23 induced acanthosis in C57BL/6 mouse measured as (3R,5S)-3-Fluoro-5-((3aR,9bR)-9b-((4-fluorophenyl)sulfonyl)-7-(perfluoropropan-2-yl)-2,3,3a,4,5,9b-hexahydro-1H-benzo[e]indole-3-carbonyl)-1-(2-hydroxy-2-methylpropyl)pyrrolidin-2-one at 45 mg/kg, po qd administered for 9 days 2 hrs before IL-23 injection; type: ADME, organism-based; details: in vivo, 216 h, time 9 day, read-out: Ct
[24] = Ratio of IC90 for inverse agonist activity at RORgammat in human whole blood assessed as IL-17 production by ELISA to drug concentration in IL-23 induced acanthosis in Th17 mouse measured as (3R,5S)-3-Fluoro-5-((3aR,9bR)-9b-((4-fluorophenyl)sulfonyl)-7-(perfluoropropan-2-yl)-2,3,3a,4,5,9b-hexahydro-1H-benzo[e]indole-3-carbonyl)-1-(2-hydroxy-2-methylpropyl)pyrrolidin-2-one at 5 mg/kg, po qd administered for 9 days 2 hrs before IL-23 injection
[25] = Ratio of IC90 for inverse agonist activity at RORgammat in human whole blood assessed as IL-17 production by ELISA to drug concentration in IL-23 induced acanthosis in Th17 mouse measured as (3R,5S)-3-Fluoro-5-((3aR,9bR)-9b-((4-fluorophenyl)sulfonyl)-7-(perfluoropropan-2-yl)-2,3,3a,4,5,9b-hexahydro-1H-benzo[e]indole-3-carbonyl)-1-(2-hydroxy-2-methylpropyl)pyrrolidin-2-one at 15 mg/kg, po qd …
[26] = Ratio of IC90 for inverse agonist activity at RORgammat in human whole blood assessed as IL-17 production by ELISA to drug concentration in IL-23 induced acanthosis in […] mouse measured as (3R,5S)-3-Fluoro-5-((3aR,9bR)-9b-((4-fluorophenyl)sulfonyl)-7-(perfluoropropan-2-yl)-2,3,3a,4,5,9b-hexahydro-1H-benzo[e]indole-3-carbonyl)-1-(2-hydroxy-2-methylpropyl)pyrrolidin-2-one at 45 mg/kg, po qd …
[27] = Solubility of the compound at pH 6.7; type: physicochemical; details: buffer

SMILES: CN1C(=O)[C@@H](O)C[C@H]1C(=O)N1CC[C@@]2(S(=O)(=O)c3ccc(F)cc3)c3ccc(C(F)(C(F)(F)F)C(F)(F)F)cc3CC[C@@H]12
- half-life [1]: 27 min
- half-life [2]: 25 min
- half-life [3]: 10 min

SMILES: O=C1[C@H](F)C[C@@H](C(=O)N2CC[C@@]3(S(=O)(=O)c4ccc(F)cc4)c4ccc(C(F)(C(F)(F)F)C(F)(F)F)cc4CC[C@@H]23)N1Cc1ccc(F)cc1
- EC50 [4]: 7 nM
- EC50 [5]: 57 nM
- half-life [1]: 24 min
- half-life [2]: 29 min
- half-life [3]: 35 min

SMILES: N#Cc1ccc(CN2C(=O)[C@H](F)C[C@H]2C(=O)N2CC[C@@]3(S(=O)(=O)c4ccc(F)cc4)c4ccc(C(F)(C(F)(F)F)C(F)(F)F)cc4CC[C@@H]23)cc1
- EC50 [4]: 30 nM
- half-life [1]: 58 min
- half-life [2]: 74 min
- half-life [3]: 61 min

SMILES: [2H]C([2H])([2H])N1C(=O)[C@@H](F)C[C@H]1C(=O)N1CC[C@@]2(S(=O)(=O)c3ccc(F)cc3)c3ccc(C(F)(C(F)(F)F)C(F)(F)F)cc3CC[C@@H]12
- half-life [1]: > 120 min
- half-life [2]: 85 min
- half-life [3]: 48 min

SMILES: CC(C)(CN1C(=O)[C@H](F)C[C@H]1C(=O)N1CC[C@@]2(S(=O)(=O)c3ccc(F)cc3)c3ccc(C(F)(C(F)(F)F)C(F)(F)F)cc3CC[C@@H]12)OP(=O)(O)O
- Cmax [6]: 650 nM
- inhibition in vivo at 45 mg/kg [7]: 67%
- inhibition in vivo at 15 mg/kg [8]: 38%
- Activity [9]: Non-Toxic
- concentration [10]: 210 nM
- AUC [11]: 13.9 µM·h
- AUC [12]: 30.9 µM·h
- AUC [13]: 274.3 µM·h
- AUC [14]: 9 µM·h
- AUC [15]: 45.2 µM·h
- AUC [16]: 162.9 µM·h
- Cmax [17]: 2580 nM
- Cmax [18]: 8340 nM
- concentration [19]: 480 nM
- concentration [20]: 910 nM
- concentration [21]: 1360 nM
- concentration [22]: 150 nM
- concentration [23]: 5820 nM
- Ratio [24]: 0.4
- Ratio [25]: 3.2
- Ratio [26]: 13.9
- solubility [27]: ≥ 4700 µg/mL

SMILES: CO[C@H]1C[C@@H](C(=O)N2CC[C@@]3(S(=O)(=O)c4ccc(F)cc4)c4ccc(C(F)(C(F)(F)F)C(F)(F)F)cc4CC[C@@H]23)N(C)C1=O
- half-life [1]: > 120 min
- half-life [2]: 94 min
- half-life [3]: 43 min

SMILES: CN1C(=O)CC[C@H]1C(=O)N1CC[C@@]2(S(=O)(=O)c3ccc(F)cc3)c3ccc(C(F)(C(F)(F)F)C(F)(F)F)cc3CC[C@@H]12
- half-life [1]: 87 min
- half-life [2]: 116 min
- half-life [3]: > 120 min
